Reference: US8076281B2, “Use of a ghrelin agonist to improve the catabolic effects of glucocorticoid treatment” (IPSEN Pharma, S.A.S., priority 2006, dated 2011)

Columns and labels:
[1] = 24-hour food intake and food efficiency; format: in vivo, Sprague-Dawley rats; details: for 24-h food intake: after 10 days of dexamethasone treatment, compared with saline-treated animals, FIG. 4A; for food efficiency: ratio body weight gain (g) / food intake (g), compared with saline treatment
Method: (§1) Beginning on the 23rd day (i.e., the animals were 23 days old), 16 of the study animals were treated intraperitoneally (Ip) daily with 40 μg/kg of either saline or dexamethasone sodium phosphate (sold under the trademark Decadron® by Merck Pharmaceuticals, West Point, Pa.). Beginning on the 30th day (i.e., the animals were 30 days old), the subgroup of 16 studied animals was further divided into groups of 8 and treated subcutaneously three times daily (at approximately 9:00 am, 1:00 pm and 5:00 pm) with either 80 nmoles/kg of the preferred ghrelin analog [Aib^2, Glu^3(NH-hexyl)]hGhrelin(1-28)-NH2 (SEQ ID NO:2) (IPSEN, Milford, Mass.) dissolved in a sterile saline solution with 0.25% bovine serum albumin or vehicle (the saline-bovine serum albumin solution alone). This regimen continued for 24 days during which time the studied animals were weighed two times per week. At irregular intervals, the cumulative food intake for a 24-hour period of time was measured. Beginning on the 46th day (i.e., the animals were 46 days old), the length of the test and control animals from nose to anus was measured (hereinafter referred to as “the nose-anal length”). On the 47th day (i.e., the animals were 47 days old), all food was denied to the test subjects commencing at 8:00 am. Small samples of blood were taken via percutaneous puncture of the tail to assess blood glucose levels during the treatment period.
Food efficiency was calculated as the ratio between body weight gain (in grams) and food intake (in grams) measured over the same time interval.

[2] = Effects of pharmacological treatments on plasma hormones and glucose concentrations; format: in vivo, Sprague-Dawley rats; details: for plasma IGF-1 concentration (in words): compared with saline; for plasma corticosterone (in words) / plasma insulin (in words): compared with saline / vehicle
Method: as §1
The test animals received two subcutaneous administrations of [Aib^2, Glu^3(NH-hexyl)]hGhrelin(1-28)-NH2 (SEQ ID NO:2) at approximately 9:00 am and 1:00 pm. The studied animals were sacrificed by rapid decapitation at approximately 2:00 pm, trunk blood collected for hormone level determinations, and the epididymal fat pads removed and weighed.
Samples of trunk blood were taken from the test subjects following decapitation. The blood samples were collected in tubes containing EDTA, separated by centrifugation, and stored at −20° C. Plasma insulin, IGF-1, and corticosterone levels were all measured using commercial RIA kits (Insulin and Corticosterone kits were both obtained from ICN-Biomedicals, Asse-Relegem, BELGIUM and the rIGF-1 test kit was obtained from Mediagnostic GMbH, Tubingen, GERMANY). Glucose concentration was determined using the Glucotrend® Soft Test System blood glucose meter (Roche Diagnostics, Barcelona, SPAIN).
Unless otherwise stated, the results reported in FIGS. 3-6 are expressed as the mean±SEM of eight replicate test subjects. Data was analyzed for statistical significance by one-way ANOVA which determines the variation (variance) within the groups and how that variation translates into variation (i.e. differences) between the groups, taking into account how many subjects there are in each group. […] The linear correlation analysis was performed either by Pearson's parametric test or by Spearman's nonparametric test. A P value below 0.05 was considered significant.

[3] = Effects of pharmacological treatments on growth parameters in young rats; format: in vivo, Sprague-Dawley rats; details: FIG. 3; for somatic growth: young male rats, compared to SAL-treated rats
Method: Thirty-two prepubertal male Sprague-Dawley rats approximately 21 days old and weighing between 45 and 55 grams, were obtained from Harlan, Italy (S. Pietro al Natisone, ITALY). During the study, the animals were maintained in accordance with the guidelines of the Italian Ministry of Health for the care and use of laboratory animals (Decreto legge 116/92). The animals were randomly divided into two treatment groups and kept in a controlled environment at a constant temperature of 21-23° C. with 12:12 light/dark exposure continuous period wherein the light exposure began at approximately 8:00 am and ended at approximately 8:00 pm. The animals were provided with water and food ad libitum consisting of an approximate 3200 calories/kg daily diet of standard pellet chow provided by Piccioni, Gessate-Milano, Italy (containing at least 19% protein, 3% fat and 56% carbohydrate).
Beginning on the 23rd day (i.e., the animals were 23 days old), 16 of the study animals were treated intraperitoneally (Ip) daily with 40 μg/kg of either saline or dexamethasone sodium phosphate (sold under the trademark Decadron® by Merck Pharmaceuticals, West Point, Pa.). […] At irregular intervals, the cumulative food intake for a 24-hour period of time was measured. Beginning on the 46th day (i.e., the animals were 46 days old), the length of the test and control animals from nose to anus was measured (hereinafter referred to as “the nose-anal length”). […]
Unless otherwise stated, the results reported in FIGS. 3-6 are expressed as the mean±SEM of eight replicate test subjects. Data was analyzed for statistical significance by one-way ANOVA which determines the variation (variance) within the groups and how that variation translates into variation (i.e. differences) between the groups, taking into account how many subjects there are in each group. […]

[4] = in the rat; cited from earlier work

[Aib^2, Glu^3(NH-hexyl)]hGhrelin(1-28)-NH2 (GXEFLSPEHQRVQQRKESKKPPAKLQPR; Aib2, Glu3 NH-hexyl, C-terminal amide; Ghrelin analog)
24-h food intake [1]: increased daily food intake | decrease of food efficiency induced by dexamethasone ([1]; in dexamethasone-treated rats, FIG. 4B): able to reverse | food efficiency ([1]; FIG. 4B): increased food efficiency | Glucose ([2]; at sacrifice (day 47), mean ± SEM of eight animals): 122 ± 3 mg/dL | plasma IGF-1 concentration (in words) [2]: higher IGF-1 levels | plasma corticosterone (in words) [2]: clear-cut increase | plasma insulin (in words) [2]: unchanged | suppression of the HPA axis (corticosterone) in dexamethasone-treated animals ([2]; in dexamethasone-treated animals): not able to overcome | IGF-1 suppression in dexamethasone-treated subjects ([2]; in dexamethasone-treated subjects): partially reversed | growth suppression induced by DEX ([3]; concomitant treatment in DEX-treated rats): reversed | somatic growth [3]: significantly increased

GHRP-6
glucocorticoid-mediated GH-inhibition [4]: completely counteract

C[C@@H]1C[C@H]2[C@@H]3CCC4=CC(=O)C=C[C@]4(C)[C@@]3(F)[C@@H](O)C[C@]2(C)[C@@]1(O)C(=O)CO [Dexamethasone, 9-fluoro-11β, 17, 21-trihydroxy-16a-methylpregna-1,4-diene-3,20-dione, reference compound]
24-h food intake [1]: significant reduction | food efficiency ([1]; FIG. 4B): significantly reduced food efficiency | cumulative 24-hour food intake ([1]; up to 10 days from the beginning of the treatment): did not significantly affect | plasma IGF-1 concentration (in words) [2]: significantly reduced | plasma corticosterone (in words) [2]: suppressed almost completely | plasma insulin (in words) [2]: tended to increase plasma insulin concentration, but the effect did not reach statistical significance | somatic growth [3]: significantly decreased
